Assay results reported in patent publication US9987381B2, “Radioligands for imaging the LPA-1 receptor” (BRISTOL-MYERS SQUIBB COMPANY, priority 2013, dated 2018).
Blank lines part the entries; values can stand above or below the compound they belong to.

Legend:
[1] = molecular target: T1, LPA1 (Macaca mulatta, UniProt H9EN64); assay: PET blocking study of [11C]-BMT-136088 with BMS-986020; assay type: in vivo, rhesus monkeys
T1 construct: from tissue; host or cells: lung of living anaesthetised rhesus monkeys (in vivo PET)
Procedure: For the blocking data reanalyzed here, each animal was scanned twice during the administration of [^11C]-BMT-136088, using a bolus plus infusion (B+I) protocol: at baseline first, then during the administration of the blocking drug, BMS-986020, also using a bolus plus infusion protocol.
In the blocking study, BMS-986020 was administered i.v. using a 10-min bolus ([…]) followed by a ˜230 min infusion (0.25 mg/kg/hr) for a total dose of 1.224±0.015 mg/kg.
Two rhesus monkeys were included in the blocking, test-retest, and saturation studies: one male, one female; age=4.8±0.8 y; weight=8.6±0.4 kg. Studies in the same animal were separated by at least 2 weeks to allow the animal to recover from anesthesia and other effects. Four rhesus monkeys (2M, 2F) were included in the dosimetry study.
Following a low-dose, CT scan used for attenuation correction and to delineate the lung regions of interest, [^11C]-BMT-136088 was injected using a computer-control pump with a bolus plus infusion protocol, with an initial 1-min bolus and a ˜119-min infusion. The volume injected during the initial bolus represented 100 min (Kbol) worth of infusion in the blocking and test-retest study, and 300 min worth of infusion in the saturation study.
Beginning at the start of each injection, a 120-minute time-of-flight list-mode acquisition on the mCT PET/CT scanner (Siemens Medical Solutions USA, Inc.) was performed. Dynamic PET scan data were reconstructed with corrections for point-spread function, attenuation, normalization, scatter, randoms, and dead time using a 3D OP-OSEM TOF algorithm. PET images were reconstructed into 33 frames, with the following frame timing: 6×30 sec; 3×1 min; 2×2 min; 22×5 min. Each frame contained 400×400×111 (x,y,z) voxels (2.04×2.04×2.0 mm).
Blood samples for PK for each blockade study session were obtained at −1, 60, 90, 120, 150, 210, 240 and 270 minutes after the start of BMS-986020 bolus plus infusion. Red cells were precipitated at 3200 rpm for 10 minutes at 10° C.; the plasma was divided into two aliquots and frozen at −80° C. until shipped for analysis. […]

[2] = molecular target: T2, LPA1 receptor (Mus musculus, UniProt P61793); assay: In vitro autoradiography of mouse lung sections: [18F] radioligand binding and displacement by blocking compound; details: for displacement of [18F] radioligand vs total binding: 3.9 nM radioligand
T2 construct: Fresh tissues from naïve mouse lungs and bleomycin treated lungs were immersed into OCT; from tissue; host or cells: lung sections (10 µm) of naïve and bleomycin-treated female C57BL/6 mice
Procedure: The naïve lung mouse tissues were collected from female C57BL/6 mice (8-10 weeks old; 18-25 grams), the samples were stored in −80° C. degree freezer until use. The bleomycin treated animals consists of female C57BL/6 mice (8-10 weeks old; 18-25 grams) were anesthetized with 5% isoflurane the day before study initiation. Bleomycin was dissolved into sterile phosphate buffered saline to a concentration of 500 μg/ml. For injection, mice were anesthetized with 5% isoflurane and using a 1 cc syringe with a 27 g needle, 100 μl of the stock bleomycin solution was injected subcutaneously (SC) into the center of each shaved region (50 μg/site). The bleomycin was administered 5 days/week, Monday through Friday, and was injected into the same region each day until Day 28. Specifically the left lobe of lung was harvested and inflated using a 1:1 OCT (which consists of a mixture 10.24% w/w polyvinyl alcohol 4.26% w/w polyethylene glycol 85.50 w/w non-reactive ingredients)/phosphate buffered saline mixture.
Fresh tissues from naïve mouse lungs and bleomycin treated lungs were immersed into OCT and chilled in 2-methylbutane for 2-5 minutes until frozen. The tissues were then wrapped in foil/ZIPLOC® bag and stored at −80° C. Tissue sections of 10 μm thickness (collected as 2 sections/slide) were cut using a cryostat and thaw-mounted on glass microscope slides, allowed to air dry for approximately 30 minutes. Blocking studies with 1-(4′-(3-methyl-4-(((l-phenylethoxy)carbonyl)amino)isoxazol-5-yl)-[1,1′-biphenyl]-4-yl)cyclopropanecarboxylic acid at 0.1 nM, 1 nM and 10 nM respectively were conducted using the following conditions. The individual slides, 4 slides per concentration, were pre-incubated in a mixture of 50 mM Hepes, […], pH=7.4 and 0.05% Tween-20 buffer solution that contains only this buffer (total binding), as well as […] 1-(4′-(3-methyl-4-(((l-phenylethoxy)carbonyl)amino)isoxazol-5-yl)-[1,1′-biphenyl]-4-yl)cyclopropanecarboxylic acid, 1 nM 1-(4′-(3-methyl-4-(((1-phenylethoxy)carbonyl)amino)isoxazol-5-yl)-[1,1′-biphenyl]-4-yl)cyclopropanecarboxylic acid and 10 nM 1-(4′-(3-methyl-4-(((1-phenylethoxy)carbonyl)amino)isoxazol-5-yl)-[1,1′-biphenyl]-4-yl)cyclopropanecarboxylic acid for a 3 hour period. These individual slides were then incubated in the buffer solution containing 3.9 nM of [^18F]-1-(4′-(4-((((3-(fluoromethyl)benzyl)oxy)carbonyl)amino)-3-methylisoxazol-5-yl)-[1,1′-biphenyl]-4-yl)cyclopropanecarboxylic acid that was formulated in 10% ethanol 90% 0.5% sodium bicarbonate. This solution was diluted with 300 ml of buffer solution to generate a stock solution. From this stock solution, 40 ml was added to each incubation chamber. One of these chambers contained only the radioligand buffer solution, which is referred to as the total binding section. An additional 40 ml was added to each incubation chamber along with the relevant concentration of blocking compound (1-(4′-(3-methyl-4-(((1-phenylethoxy)carbonyl)amino)isoxazol-5-yl)-[1,1′-biphenyl]-4-yl)cyclopropanecarboxylic acid at 0.1 nM, 1 nM, 10 nM). Then the individual slides were incubated in the buffer solution containing the [^18F]-1-(4′-(4-((((3-(fluoromethyl)benzyl)oxy)carbonyl)amino)-3-methylisoxazol-5-yl)-[1,1′-biphenyl]-4-yl)cyclopropanecarboxylic acid radioligand and blocking compound for 1.5 hours at room temperature to reach maximum binding. After 4.5 hours of total incubation, slides from each treatment group were removed from the incubation solutions and placed in an ice-cold wash buffer (50 mM Hepes, 100 mM NaCl, and 0.05% Tween-20, pH=7.4) and rinsed 4 times. Slides were then dried under a stream of cold air for approximately 1 hour. The air-dried slides were exposed by placing the slides onto an imaging plate (BAS-SR 3545S) for 15 minutes at room temperature. The imaging plate was scanned using the bioimaging analyzer (Fujifilm Fluorescent Image Analyzer, FLA-9000). The pixel size of the autoradiogram images was 100 μm. […]

T1 sequence (H9EN64 1-364): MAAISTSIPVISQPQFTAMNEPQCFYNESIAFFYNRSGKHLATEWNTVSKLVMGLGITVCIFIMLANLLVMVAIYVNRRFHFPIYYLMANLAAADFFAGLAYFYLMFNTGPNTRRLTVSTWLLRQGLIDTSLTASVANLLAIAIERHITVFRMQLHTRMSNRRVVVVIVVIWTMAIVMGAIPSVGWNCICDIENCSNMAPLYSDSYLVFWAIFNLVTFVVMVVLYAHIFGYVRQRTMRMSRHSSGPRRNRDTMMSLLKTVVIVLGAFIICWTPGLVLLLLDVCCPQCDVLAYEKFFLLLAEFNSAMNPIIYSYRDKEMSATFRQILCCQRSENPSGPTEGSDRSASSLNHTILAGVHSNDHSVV
T2 sequence (P61793 whole entry): as the sequence (H9EN64 1-364) above, with I4A, I8S, P22Q, H40Y, I61V, E193D, N194H, I269V, S331N, S335N counted along it

blockade effect ([1]; VT by MA1, all corrections incl. lung density and blood radioactivity, BMS-986020 i.v. bolus plus infusion): 54±11% | occupancy of LPA1 binding ([1]; at 1.25 mg/kg): ~100% | receptor occupancy at 1.25 mg/kg ([1]; rhesus monkey, at 1.25 mg/kg, read-out: occupancy of LPA1 binding): 103 ± 20%
Compound: Cc1noc(-c2ccc(-c3ccc(C4(C(=O)O)CC4)cc3)cc2)c1NC(=O)O[C@H](C)c1ccccc1 [BMS-986020]

localisation of radioligand binding in lung ([2]; bleomycin treated mouse lung section, trichrome collagen staining, FIG. 1): resides within positive collagen
Compound: Cc1noc(-c2ccc(-c3ccc(C4(C(=O)O)CC4)cc3)cc2)c1NC(=O)OCc1cccc(C[18F])c1 [[^18F]-1-(4′-(4-((((3-(fluoromethyl)benzyl)oxy)carbonyl)amino)-3-methylisoxazol-5-yl)-[1,1′-biphenyl]-4-yl)cyclopropanecarboxylic acid]

radioligand displacement (FIG. 2) ([2]; 10 nM blocking compound, naïve and bleomycin treated mouse lung sections): ~80% | displacement of [18F] radioligand vs total binding ([2]; bleomycin treated mouse lung tissue sections, 0.1 nM blocking compound): 11.3+/−4.2% | displacement of [18F] radioligand vs total binding ([2]; bleomycin treated mouse lung tissue sections, 1 nM blocking compound): 55.5+/−2.3% | displacement of [18F] radioligand vs total binding ([2]; bleomycin treated mouse lung tissue sections, 10 nM blocking compound): 82.7%+/−1.4 | displacement of [18F] radioligand vs total binding ([2]; naïve mouse lung tissue sections, 0.1 nM blocking compound): 18.2+/−7.6% | displacement of [18F] radioligand vs total binding ([2]; naïve mouse lung tissue sections, 1 nM blocking compound): 57.3+/−2.6% | displacement of [18F] radioligand vs total binding ([2]; naïve mouse lung tissue sections, 10 nM blocking compound): 72.6%+/−6.7
Compound: Cc1noc(-c2ccc(-c3ccc(C4(C(=O)O)CC4)cc3)cc2)c1NC(=O)OC(C)c1ccccc1 (centres unmarked) [1-(4′-(3-methyl-4-(((1-phenylethoxy)carbonyl)amino)isoxazol-5-yl)-[1,1′-biphenyl]-4-yl)cyclopropanecarboxylic acid]
